Assay results taken from patent US12421229B2, “Hydropyrido[1,2-α]pyrazine compounds for the treatment of autoimmune disease” (Hoffmann-La Roche Inc., priority 2019, dated 2025).

Target: T1, human TLR9 (Homo sapiens, UniProt Q9NR96)
T1 construct: host or cells: HEK293 (HEK-Blue hTLR9)
T1 sequence (Q9NR96 26-1032): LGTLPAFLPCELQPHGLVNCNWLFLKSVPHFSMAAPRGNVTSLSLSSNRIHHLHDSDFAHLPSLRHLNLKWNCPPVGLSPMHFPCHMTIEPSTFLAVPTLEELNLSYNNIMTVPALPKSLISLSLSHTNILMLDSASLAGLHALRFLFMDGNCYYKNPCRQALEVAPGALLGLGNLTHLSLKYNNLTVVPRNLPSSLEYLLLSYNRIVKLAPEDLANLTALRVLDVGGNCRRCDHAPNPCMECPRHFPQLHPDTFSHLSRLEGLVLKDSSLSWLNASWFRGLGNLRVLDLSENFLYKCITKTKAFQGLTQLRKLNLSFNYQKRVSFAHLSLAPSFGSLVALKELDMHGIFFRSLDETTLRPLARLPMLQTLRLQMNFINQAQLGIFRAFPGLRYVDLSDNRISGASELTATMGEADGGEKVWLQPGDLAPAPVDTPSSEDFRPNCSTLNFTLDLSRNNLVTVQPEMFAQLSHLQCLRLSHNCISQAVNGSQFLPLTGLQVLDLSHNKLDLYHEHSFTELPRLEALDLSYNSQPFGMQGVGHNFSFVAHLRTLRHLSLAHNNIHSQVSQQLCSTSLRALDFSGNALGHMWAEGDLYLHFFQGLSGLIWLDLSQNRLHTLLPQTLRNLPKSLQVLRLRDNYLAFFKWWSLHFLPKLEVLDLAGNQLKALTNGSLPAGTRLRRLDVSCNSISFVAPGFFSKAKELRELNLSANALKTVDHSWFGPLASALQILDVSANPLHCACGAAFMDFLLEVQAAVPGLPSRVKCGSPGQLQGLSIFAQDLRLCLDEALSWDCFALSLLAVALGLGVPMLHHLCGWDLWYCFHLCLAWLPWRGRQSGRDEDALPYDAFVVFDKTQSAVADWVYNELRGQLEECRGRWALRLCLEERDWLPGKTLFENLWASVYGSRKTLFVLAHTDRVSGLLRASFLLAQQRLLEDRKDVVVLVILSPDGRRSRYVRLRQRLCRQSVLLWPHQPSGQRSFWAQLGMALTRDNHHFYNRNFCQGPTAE
Test: HEK293-Blue-hTLR-9 cells assay
Type: cell-based
Conditions: HEK293-Blue-hTLR9 cells, ODN2006 stimulation, 20 hrs, SEAP reporter; read-out: HEK/hTLR9 IC50
Excerpt: A stable HEK293-Blue-hTLR-9 cell line was purchased from InvivoGen (Cat. #: hkb-htlr9, San Diego, California, USA). These cells were originally designed for studying the stimulation of human TLR9 by monitoring the activation of NF-κB. A SEAP (secreted embryonic alkaline phosphatase) reporter gene was placed under the control of the IFN-β minimal promoter fused to five NF-κB and AP-1-binding sites. The SEAP was induced by activating NF-κB and AP-1 via stimulating HEK-Blue hTLR9 cells with TLR9 ligands. Therefore the reporter expression was declined by TLR9 antagonist under the stimulation of a ligand, such as ODN2006 (Cat. #: tlrl-2006-1, Invivogen, San Diego, California, USA), for incubation of 20 hrs. The cell culture supernatant SEAP reporter activity was determined using QUANTI-Blue™ kit (Cat. #: rep-qb1, Invivogen, San Diego, California, USA) at a wavelength of 640 nm, a detection medium that turns purple or blue in the presence of alkaline phosphatase.
HEK293-Blue-hTLR9 cells were incubated at a density of 250,000˜450,000 cells/mL in a volume of 170 μL in a 96-well plate in Dulbecco's Modified Eagle's medium (DMEM) containing 4.5 g/L glucose, 50 U/mL penicillin, […], 2 mM L-glutamine, 10% (v/v) heat-inactivated fetal bovine serum with addition of 20 μL test compound in a serial dilution in the presence of final DMSO at 1% and 10 μL of 20 uM ODN2006 in above DMEM, perform incubation under 37° C. in a CO2 incubator for 20 hrs. Then 20 μL of the supernatant from each well was incubated with 180 μL Quanti-blue substrate solution at 37° C. for 2 h and the absorbance was read at 620˜655 nm using a spectrophotometer. The signaling pathway that TLR9 activation leads to downstream NF-κB activation has been widely accepted, and therefore similar reporter assay was modified for evaluating TLR9 antagonist.

Row | SMILES | IC50
1 | C[C@@H]1CN(c2ccc(C#N)c3ncccc23)C[C@@H]2C[C@H](c3ccc(N4CCNCC4)nc3)CCN21 (stereo in doubt) [Example 2, 5-[(4R,8R)-4-methyl-8-(6-piperazin-1-yl-3-pyridyl)-1,3,4,6,7,8,9,9a-octahydropyrido[1,2-a]pyrazin-2-yl]quinoline-8-carbonitrile] | 81 nM
2 | C[C@@H]1CN(c2ccc(C#N)c3ncccc23)C[C@@H]2CC(c3ccc(C[C@@H]4CNCCO4)cc3)CCN21 (stereo in doubt) [Example 25, 5-[(4R,8R,9aS)-4-methyl-8-[4-[[(2R)-morpholin-2-yl]methyl]phenyl]-1,3,4,6,7,8,9,9a-octahydropyrido[1,2-a]pyrazin-2-yl]quinoline-8-carbonitrile] | 78 nM
3 | C[C@@H]1CN(c2ccc(C#N)c3ncccc23)C[C@@H]2C[C@H](NCc3ccc(N4CCNCC4)cc3)CCN21 [Example 1, 5-[(4R,8R,9aS)-4-methyl-8-[(4-piperazin-1-ylphenyl)methylamino]-1,3,4,6,7,8,9,9a-octahydropyrido[1,2-a]pyrazin-2-yl]quinoline-8-carbonitrile] | < 32 nM
4 | C[C@@H]1CN(c2ccc(C#N)c3ncccc23)CC2C[C@H](c3ccc(N4CCNCC4)cc3)CCN21 (stereo partly drawn) [Example 3, 5-[(4R,8R)-4-methyl-8-(4-piperazin-1-ylphenyl)-1,3,4,6,7,8,9,9a-octahydropyrido[1,2-a]pyrazin-2-yl]quinoline-8-carbonitrile] | 92 nM
5 | C[C@@H]1CN(c2ccc(C#N)c3ncccc23)C[C@@H]2C[C@H](c3ccc(N4CCNCC4)nc3)CCN21 [Example 4, 5-[(4R,8R,9aS)-4-methyl-8-(6-piperazin-1-yl-3-pyridyl)-1,3,4,6,7,8,9,9a-octahydropyrido[1,2-a]pyrazin-2-yl]quinoline-8-carbonitrile] | 86 nM
6 | CO[C@H]1CN(c2ccc([C@@H]3CCN4[C@@H](C3)CN(c3ccc(C#N)c5ncccc35)C[C@H]4C)cn2)C[C@@H]1N [Example 6, 5-[(4R,8R,9aS)-8-[6-[(3S,4S)-3-amino-4-methoxy-pyrrolidin-1-yl]-3-pyridyl]-4-methyl-1,3,4,6,7,8,9,9a-octahydropyrido[1,2-a]pyrazin-2-yl]quinoline-8-carbonitrile] | 87 nM
7 | C[C@@H]1CN(c2ccc(C#N)c3ncccc23)C[C@@H]2C[C@H](c3ccc(N4CC(N)C4)nc3)CCN21 [Example 7, 5-[(4R,8R,9aS)-8-[6-(3-aminoazetidin-1-yl)-3-pyridyl]-4-methyl-1,3,4,6,7,8,9,9a-octahydropyrido[1,2-a]pyrazin-2-yl]quinoline-8-carbonitrile] | 184 nM
8 | C[C@@H]1CN(c2ccc(C#N)c3ncccc23)C[C@@H]2C[C@H](N3CC(c4ccc(N5CCNCC5)cc4)C3)CCN21 [Example 9, 5-[(4R,8R,9aS)-4-methyl-8-[3-(4-piperazin-1-ylphenyl)azetidin-1-yl]-1,3,4,6,7,8,9,9a-octahydropyrido[1,2-a]pyrazin-2-yl]quinoline-8-carbonitrile] | < 32 nM
9 | C[C@@H]1CN(c2ccc(C#N)c3ncccc23)C[C@@H]2C[C@@H](Oc3ccc(N4CCNCC4)cn3)CCN21 [Example 11, 5-[(4R,8S,9aS)-4-methyl-8-[(5-piperazin-1-yl-2-pyridyl)oxy]-1,3,4,6,7,8,9,9a-octahydropyrido[1,2-a]pyrazin-2-yl]quinoline-8-carbonitrile] | 90 nM
10 | CO[C@H]1CN(c2ccc([C@@H]3CCN4[C@@H](C3)CN(c3ccc(C#N)c5ncccc35)C[C@H]4C)cn2)C[C@H]1N [Example 12, 5-[(4R,8R,9aS)-8-[6-[(3R,4S)-3-amino-4-methoxy-pyrrolidin-1-yl]-3-pyridyl]-4-methyl-1,3,4,6,7,8,9,9a-octahydropyrido[1,2-a]pyrazin-2-yl]quinoline-8-carbonitrile] | 66 nM
11 | CO[C@@H]1CN(c2ccc([C@@H]3CCN4[C@@H](C3)CN(c3ccc(C#N)c5ncccc35)C[C@H]4C)cn2)C[C@@H]1N [Example 13, 5-[(4R,8R,9aS)-8-[6-[(3S,4R)-3-amino-4-methoxy-pyrrolidin-1-yl]-3-pyridyl]-4-methyl-1,3,4,6,7,8,9,9a-octahydropyrido[1,2-a]pyrazin-2-yl]quinoline-8-carbonitrile] | 94 nM
12 | CO[C@@H]1CN(c2ccc([C@@H]3CCN4[C@@H](C3)CN(c3ccc(C#N)c5ncccc35)C[C@H]4C)cn2)C[C@H]1N [Example 14, 5-[(4R,8R,9aS)-8-[6-[(3R,4R)-3-amino-4-methoxy-pyrrolidin-1-yl]-3-pyridyl]-4-methyl-1,3,4,6,7,8,9,9a-octahydropyrido[1,2-a]pyrazin-2-yl]quinoline-8-carbonitrile] | 78 nM
13 | C[C@@H]1CN(c2ccc(C#N)c3ncccc23)C[C@H]2C[C@H](c3ccc(N4CCNCC4)nc3)CCN21 [Example 15, 5-[(4R,8R,9aR)-4-methyl-8-(6-piperazin-1-yl-3-pyridyl)-1,3,4,6,7,8,9,9a-octahydropyrido[1,2-a]pyrazin-2-yl]quinoline-8-carbonitrile] | 84 nM
14 | C[C@@H]1CN(c2ccc(C#N)c3ncccc23)C[C@@H]2C[C@@H](Oc3ccc(N4CCNCC4)nc3)CCN21 [Example 16, 5-[(4R,8S,9aS)-4-methyl-8-[(6-piperazin-1-yl-3-pyridyl)oxy]-1,3,4,6,7,8,9,9a-octahydropyrido[1,2-a]pyrazin-2-yl]quinoline-8-carbonitrile] | 37 nM
15 | C[C@@H]1CN(c2ccc(C#N)c3ncccc23)C[C@@H]2C[C@@H](NCc3ccc(N4CCNCC4)cc3)CCN21 [Example 17, 5-[(4R,8S,9aS)-4-methyl-8-[(4-piperazin-1-ylphenyl)methylamino]-1,3,4,6,7,8,9,9a-octahydropyrido[1,2-a]pyrazin-2-yl]quinoline-8-carbonitrile] | < 32 nM
16 | C[C@@H]1CN(c2ccc(C#N)c3ncccc23)C[C@@H]2C[C@@H](Oc3cnc(N4CCNCC4)nc3)CCN21 [Example 18, 5-[(4R,8S,9aS)-4-methyl-8-(2-piperazin-1-ylpyrimidin-5-yl)oxy-1,3,4,6,7,8,9,9a-octahydropyrido[1,2-a]pyrazin-2-yl]quinoline-8-carbonitrile] | 60 nM
17 | C[C@@H]1CN(c2ccc(C#N)c3ncccc23)C[C@@H]2C[C@H](c3ccc(N4C[C@@H](N)[C@@H](F)C4)nc3)CCN21 [Example 19, 5-[(4R,8R,9aS)-8-[6-[(3R,4S)-3-amino-4-fluoro-pyrrolidin-1-yl]-3-pyridyl]-4-methyl-1,3,4,6,7,8,9,9a-octahydropyrido[1,2-a]pyrazin-2-yl]quinoline-8-carbonitrile] | 82 nM
18 | C[C@@H]1CN(c2ccc(C#N)c3ncccc23)C[C@@H]2C[C@H](Nc3ccc([C@H]4CNCCO4)cc3)CCN21 [Example 20, 5-[(4R,8R,9aS)-4-methyl-8-[4-[(2S)-morpholin-2-yl]anilino]-1,3,4,6,7,8,9,9a-octahydropyrido[1,2-a]pyrazin-2-yl]quinoline-8-carbonitrile] | 50 nM
19 | C[C@@H]1CN(c2ccc(C#N)c3ncccc23)C[C@@H]2C[C@H](Nc3ccc(C[C@@H]4CNCCO4)cc3)CCN21 [Example 21, 5-[(4R,8R,9aS)-4-methyl-8-[4-[[(2R)-morpholin-2-yl]methyl]anilino]-1,3,4,6,7,8,9,9a-octahydropyrido[1,2-a]pyrazin-2-yl]quinoline-8-carbonitrile] | 86 nM
